Results as given in patent US20250353873A1, “COMPOUNDS AND METHODS FOR MODULATING APOE EXPRESSION” (Ionis Pharmaceuticals, Inc., priority 2024, published 2025).
Strand notation (5' to 3'): a small letter for the sugar, then the base; units joined by * are phosphorothioate-linked, units joined directly phosphodiester-linked; [ ] holds rarer units or linkages, { } end groups; capitals alone tell only the bases. [ms] = mesyl phosphoramidate linkage; e = 2'-O-(2-methoxyethyl) (MOE); k = constrained ethyl (cEt); [5mC] = 5-methylcytosine; d = 2'-deoxy (DNA)

Experiments:
[1] = system: human APOE RNA; assay: Dose-dependent reduction of human APOE RNA in HepG2 cells, electroporation, 20,000 cells per well, average of GAPDH- and PPIA-normalized results (Example 4, Table 12); format: cell-based; details: HepG2, 20,000 cells per well; for IC50: approximately 24 hours
Procedure: HepG2 cells plated at a density of 20,000 cells per well were treated by electroporation with various concentrations of modified oligonucleotide as specified in the tables below. […] APOE RNA levels were measured using the human primer probe set RTS3073 (described herein above). APOE RNA levels were normalized to human GAPDH, and human PPIA. Human GAPDH was amplified using human primer probe set RTS104 (described herein above). Human PPIA was amplified using human primer probe set mk_cycloA_2nd (described herein above) The average of the GAPDH-normalized results and the PPIA-normalized results are presented in the table below as percent APOE RNA, relative to the amount of APOE RNA in untreated control cells (% UTC). The half maximal inhibitory concentration (IC50) of each modified oligonucleotide was calculated in GraphPad Prism 10 (GraphPad Software, San Diego, CA) and is also presented in the table below.

[2] = system: human APOE RNA; assay: Dose-dependent inhibition of human APOE RNA in differentiated SH-SY5Y cells, free uptake, 5 days (Example 5); format: cell-based; details: 5 days (Table 14)
Summary of the method: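 APOE RNA, measured by RTS3073 primer probe set and normalized to human PPIA, is reported as % of untreated control cells, with IC50 fitted. Cells were differentiated SH-SY5Y at 10,000/well, given modified oligonucleotide at several concentrations by free uptake for 5 days.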

[3] = system: human APOE RNA; assay: Activity in APOE C57BL/6NTac-Apoeem7250 knock-in mice, single ICV bolus, 4 weeks (Example 10); format: in vivo; details: single ICV bolus 300 μg, 4 weeks post treatment, normalized to mouse Ppia
Summary of the method: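 Human APOE RNA, quantified by real-time RT-PCR with RTS3073 and normalized to mouse Ppia, was read in cortical brain and spinal cord 4 weeks post dosing. Dosing was a single ICV bolus of 300 μg per knock-in mouse; values are % of PBS-treated animals.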

[4] = system: human APOE RNA; assay: Activity in APOE C57BL/6NTac-Apoeem7250 knock-in mice, single ICV bolus, 8 weeks (Example 11); format: in vivo; details: single ICV bolus 300 μg, 8 weeks post treatment, normalized to mouse Ppia
Summary of the method: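 Cortical and spinal cord human APOE RNA quantified by RT-qPCR 8 weeks after a single 300 μg ICV dose in knock-in mice, Ppia-normalized. Values are percent of levels in PBS-treated animals.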

[5] = system: human APOE RNA; assay: Potency (dose response, ED50) in APOE C57BL/6NTac-Apoeem7250 knock-in mice, 4 weeks (Example 14); format: in vivo; details: for ED 50 (μg) Cortex / ED 50 (μg) Spinal Cord: single ICV bolus, GraphPad Prism 10
Procedure: Modified oligonucleotides described above were tested in the APOE C57BL/6NTac-Apoeem7250 knock-in mouse model described above.
APOE C57BL/6NTac-Apoeem7250 knock-in mice were divided into groups of 3-4 mice each. A group of 3-4 mice received a single ICV bolus with PBS as a negative control.
Four weeks post treatment, mice were sacrificed, and RNA was extracted from cortical brain tissue and spinal cord for quantitative real-time RT-PCR analysis of RNA expression of […] using human primer probe set RTS3073 (described herein above). APOE RNA levels were normalized to mouse Ppia. Mouse Ppia was amplified using primer probe set m_cyclo24 (described herein above). Results are presented as percent human APOE RNA relative to the amount of APOE RNA in PBS treated animals, (% control). N.C. indicates values that were not calculated. Each experiment is identified in separate tables below.
The half maximal effective dose (ED50) of each modified oligonucleotide was calculated using GraphPad Prism 10 software (GraphPad Software, San Diego, CA).

| Substance | APOE RNA (% UTC) ([1]; 5 nM) | APOE RNA (% UTC) ([1]; 13 nM) | APOE RNA (% UTC) ([1]; 33 nM) | APOE RNA (% UTC) ([1]; 82 nM) | APOE RNA (% UTC) ([1]; 205 nM) | APOE RNA (% UTC) ([1]; 512 nM) | APOE RNA (% UTC) ([1]; 1,280 nM) | APOE RNA (% UTC) ([1]; 3,200 nM) | APOE RNA (% UTC) ([1]; 8,000 nM) | APOE RNA (% UTC) ([1]; 20,000 nM) | IC50 [1] | APOE RNA (% UTC) ([2]; 5 nM) | APOE RNA (% UTC) ([2]; 13 nM) | APOE RNA (% UTC) ([2]; 33 nM) | APOE RNA (% UTC) ([2]; 82 nM) | APOE RNA (% UTC) ([2]; 205 nM) | APOE RNA (% UTC) ([2]; 512 nM) | APOE RNA (% UTC) ([2]; 1,280 nM) | APOE RNA (% UTC) ([2]; 3,200 nM) | APOE RNA (% UTC) ([2]; 8,000 nM) | also measured |
| --- | --- | --- | --- | --- | --- | --- | --- | --- | --- | --- | --- | --- | --- | --- | --- | --- | --- | --- | --- | --- | --- |
| 1778130: modified oligonucleotide complementary to human APOE RNA (eA*e[5mC]eTeTeG*kG*dT*dG[ms]dA[ms]dA*dT*d[5mC]*dT*dT*dT*dA[ms]kTkT*eA*eA; antisense) [compound 1778130] | 99 % UTC | 100 % UTC | 85 % UTC | 72 % UTC | 52 % UTC | 45 % UTC | 20 % UTC | 12 % UTC | 18 % UTC | 9 % UTC | 310 nM | 78 % UTC | 75 % UTC | 75 % UTC | 51 % UTC | 54 % UTC | 56 % UTC | 51 % UTC | 31 % UTC | 24 % UTC | APOE RNA (% UTC) ([2]; 20,000 nM): 12 % UTC; IC50 [2]: 370 nM; APOE RNA (% control) Cortex [3]: 31 % control; APOE RNA (% control) Spinal Cord [3]: 34 % control; APOE RNA (% control) Cortex [4]: 23 % control; APOE RNA (% control) Spinal Cord [4]: 18 % control; APOE RNA (% control) Cortex ([5]; ICV dose 10 μg): 123 % control; APOE RNA (% control) Cortex ([5]; ICV dose 30 μg): 100 % control; APOE RNA (% control) Cortex ([5]; ICV dose 100 μg): 69 % control; APOE RNA (% control) Cortex ([5]; ICV dose 300 μg): 74 % control; APOE RNA (% control) Cortex ([5]; ICV dose 700 μg): 37 % control; ED 50 (μg) Cortex [5]: 502.4 µg; APOE RNA (% control) Spinal Cord ([5]; ICV dose 10 μg): 88 % control; APOE RNA (% control) Spinal Cord ([5]; ICV dose 30 μg): 35 % control; APOE RNA (% control) Spinal Cord ([5]; ICV dose 100 μg): 27 % control; APOE RNA (% control) Spinal Cord ([5]; ICV dose 300 μg): 22 % control; APOE RNA (% control) Spinal Cord ([5]; ICV dose 700 μg): 32 % control; ED 50 (μg) Spinal Cord [5]: 35.9 µg |
| 1746809 (k[5mC]*dT[ms]kT*dG[ms]kG*dT[ms]dG[ms]dA[ms]dA[ms]dT*d[5mC]*dT*dT*dT*dA[ms]dT*dT[ms]kA*kA*kA; antisense) [Compound 1746809] | 97 % UTC | 94 % UTC | 86 % UTC | 72 % UTC | 59 % UTC | 34 % UTC | 28 % UTC | 11 % UTC | 15 % UTC | 10 % UTC | 310 nM | 93 % UTC | 118 % UTC | 80 % UTC | 68 % UTC | 77 % UTC | 57 % UTC | 31 % UTC | 34 % UTC | 12 % UTC | APOE RNA (% UTC) ([2]; 20,000 nM): 8 % UTC; IC50 [2]: 660 nM; APOE RNA (% control) Cortex [3]: 36 % control; APOE RNA (% control) Spinal Cord [3]: 59 % control; APOE RNA (% control) Cortex [4]: 47 % control; APOE RNA (% control) Spinal Cord [4]: 44 % control; APOE RNA (% control) Cortex ([5]; ICV dose 10 μg): 98 % control; APOE RNA (% control) Cortex ([5]; ICV dose 30 μg): 89 % control; APOE RNA (% control) Cortex ([5]; ICV dose 100 μg): 79 % control; APOE RNA (% control) Cortex ([5]; ICV dose 300 μg): 57 % control; APOE RNA (% control) Cortex ([5]; ICV dose 700 μg): 41 % control; ED 50 (μg) Cortex [5]: 446.6 µg; APOE RNA (% control) Spinal Cord ([5]; ICV dose 10 μg): 105 % control; APOE RNA (% control) Spinal Cord ([5]; ICV dose 30 μg): 92 % control; APOE RNA (% control) Spinal Cord ([5]; ICV dose 100 μg): 59 % control; APOE RNA (% control) Spinal Cord ([5]; ICV dose 300 μg): 48 % control; APOE RNA (% control) Spinal Cord ([5]; ICV dose 700 μg): 64 % control; ED 50 (μg) Spinal Cord [5]: 652.7 µg |
